The source made the active and inactive calls. The rule behind the calls is not given here.
Key:
[1] = Toxicity in C57BL/6 mouse xenografted with human MV4-11 cells at 300 mg/kg, po; type: organism-based; conditions: in vivo
[2] = Drug concentration in C57BL/6 mouse blood at 300 mg/kg, po measured after 24 hrs; type: ADME, organism-based; conditions: read-out: Drug uptake
[3] = biological target: N-lysine methyltransferase SMYD2 (Homo sapiens) (UniProt Q9NRG4); assay: Inhibition of SmyD2 (unknown origin) at <5 uM using p53 (363 to 393 residues) as substrate in presence of co-factor SAM by LC-MS analysis
Sequence of N-lysine methyltransferase SMYD2 (Homo sapiens) (Q9NRG4 whole entry, the tested form may be a part): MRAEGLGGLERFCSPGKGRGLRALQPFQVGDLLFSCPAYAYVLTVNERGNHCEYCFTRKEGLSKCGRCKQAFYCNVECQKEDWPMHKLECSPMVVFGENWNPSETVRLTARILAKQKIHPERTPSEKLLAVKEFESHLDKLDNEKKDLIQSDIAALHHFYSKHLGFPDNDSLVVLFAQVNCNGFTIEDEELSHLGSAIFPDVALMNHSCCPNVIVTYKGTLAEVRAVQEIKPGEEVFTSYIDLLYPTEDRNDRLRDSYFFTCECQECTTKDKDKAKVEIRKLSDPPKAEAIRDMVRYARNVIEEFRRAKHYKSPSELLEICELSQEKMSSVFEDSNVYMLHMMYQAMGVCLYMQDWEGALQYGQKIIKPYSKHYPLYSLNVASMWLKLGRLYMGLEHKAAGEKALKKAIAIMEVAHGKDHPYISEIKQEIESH

Mus musculus = assay: In vivo inhibition of DOT1L in C57BL/6 mouse xenografted with human MV4-11 cells assessed as reduction in HOXA9 gene expression at <6 fold 300 mg/kg, po relative to control; type: functional
[4] = biological target: Histone-lysine N-methyltransferase SUV39H2 (Homo sapiens) (UniProt Q9H5I1); assay: Inhibition of Suv39H2 (unknown origin) at <5 uM using histone H3 peptide (1 to 21) as substrate in presence of co-factor SAM by LC-MS analysis
Sequence of Histone-lysine N-methyltransferase SUV39H2 (Homo sapiens) (Q9H5I1 whole entry): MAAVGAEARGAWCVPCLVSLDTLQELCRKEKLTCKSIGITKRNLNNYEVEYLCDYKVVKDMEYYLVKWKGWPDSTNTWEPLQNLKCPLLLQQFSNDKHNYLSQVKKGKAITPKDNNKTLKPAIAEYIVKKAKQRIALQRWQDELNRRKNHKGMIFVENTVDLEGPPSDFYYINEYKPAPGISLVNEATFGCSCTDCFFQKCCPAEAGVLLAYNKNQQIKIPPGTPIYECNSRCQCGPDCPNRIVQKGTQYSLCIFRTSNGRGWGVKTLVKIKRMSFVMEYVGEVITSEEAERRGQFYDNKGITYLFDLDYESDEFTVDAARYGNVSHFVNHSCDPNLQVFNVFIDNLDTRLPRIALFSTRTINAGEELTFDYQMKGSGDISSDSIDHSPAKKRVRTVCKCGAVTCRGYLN

[5] = biological target: T1, Histone-lysine N-methyltransferase SETD7 (Homo sapiens) (UniProt Q8WTS6); assay: Inhibition of Set7/9 (unknown origin) at <5 uM using H3 (1 to 21) as substrate in presence of co-factor SAM by LC-MS analysis
T1 sequence (whole entry): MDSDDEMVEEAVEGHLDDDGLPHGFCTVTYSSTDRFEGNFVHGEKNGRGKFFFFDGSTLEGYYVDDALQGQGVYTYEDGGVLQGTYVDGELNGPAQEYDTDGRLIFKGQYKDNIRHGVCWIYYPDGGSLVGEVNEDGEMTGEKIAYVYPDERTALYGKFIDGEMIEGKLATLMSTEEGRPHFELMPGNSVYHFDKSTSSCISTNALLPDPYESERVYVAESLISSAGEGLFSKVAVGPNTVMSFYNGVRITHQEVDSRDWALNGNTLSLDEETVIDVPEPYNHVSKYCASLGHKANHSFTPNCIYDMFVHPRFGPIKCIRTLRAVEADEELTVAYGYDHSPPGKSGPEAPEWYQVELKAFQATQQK

Homo sapiens = species: Homo sapiens; assay: Inhibition of PRC2 complex of human full-length N-terminal FLAG-tagged EZH2/EED/SUZ12/AEBP2/RbAp48 expressed in baculovirus expression system at <5 uM using histone H3 peptide (21 to 44) as substrate in presence of co-factor SAM by LC-MS analysis
[6] = Drug concentration in C57BL/6 mouse blood at 300 mg/kg, po administered daily for 7 days; type: ADME, organism-based; conditions: in vivo, 168 h
[7] = biological target: Histone-lysine N-methyltransferase SETD2 (Homo sapiens) (UniProt Q9BYW2); assay: Inhibition of SETD2 (unknown origin) at <5 uM using histone H3 peptide (21 to 44) as substrate in presence of co-factor SAM by LC-MS analysis
Sequence of Histone-lysine N-methyltransferase SETD2 (Homo sapiens) (Q9BYW2 whole entry): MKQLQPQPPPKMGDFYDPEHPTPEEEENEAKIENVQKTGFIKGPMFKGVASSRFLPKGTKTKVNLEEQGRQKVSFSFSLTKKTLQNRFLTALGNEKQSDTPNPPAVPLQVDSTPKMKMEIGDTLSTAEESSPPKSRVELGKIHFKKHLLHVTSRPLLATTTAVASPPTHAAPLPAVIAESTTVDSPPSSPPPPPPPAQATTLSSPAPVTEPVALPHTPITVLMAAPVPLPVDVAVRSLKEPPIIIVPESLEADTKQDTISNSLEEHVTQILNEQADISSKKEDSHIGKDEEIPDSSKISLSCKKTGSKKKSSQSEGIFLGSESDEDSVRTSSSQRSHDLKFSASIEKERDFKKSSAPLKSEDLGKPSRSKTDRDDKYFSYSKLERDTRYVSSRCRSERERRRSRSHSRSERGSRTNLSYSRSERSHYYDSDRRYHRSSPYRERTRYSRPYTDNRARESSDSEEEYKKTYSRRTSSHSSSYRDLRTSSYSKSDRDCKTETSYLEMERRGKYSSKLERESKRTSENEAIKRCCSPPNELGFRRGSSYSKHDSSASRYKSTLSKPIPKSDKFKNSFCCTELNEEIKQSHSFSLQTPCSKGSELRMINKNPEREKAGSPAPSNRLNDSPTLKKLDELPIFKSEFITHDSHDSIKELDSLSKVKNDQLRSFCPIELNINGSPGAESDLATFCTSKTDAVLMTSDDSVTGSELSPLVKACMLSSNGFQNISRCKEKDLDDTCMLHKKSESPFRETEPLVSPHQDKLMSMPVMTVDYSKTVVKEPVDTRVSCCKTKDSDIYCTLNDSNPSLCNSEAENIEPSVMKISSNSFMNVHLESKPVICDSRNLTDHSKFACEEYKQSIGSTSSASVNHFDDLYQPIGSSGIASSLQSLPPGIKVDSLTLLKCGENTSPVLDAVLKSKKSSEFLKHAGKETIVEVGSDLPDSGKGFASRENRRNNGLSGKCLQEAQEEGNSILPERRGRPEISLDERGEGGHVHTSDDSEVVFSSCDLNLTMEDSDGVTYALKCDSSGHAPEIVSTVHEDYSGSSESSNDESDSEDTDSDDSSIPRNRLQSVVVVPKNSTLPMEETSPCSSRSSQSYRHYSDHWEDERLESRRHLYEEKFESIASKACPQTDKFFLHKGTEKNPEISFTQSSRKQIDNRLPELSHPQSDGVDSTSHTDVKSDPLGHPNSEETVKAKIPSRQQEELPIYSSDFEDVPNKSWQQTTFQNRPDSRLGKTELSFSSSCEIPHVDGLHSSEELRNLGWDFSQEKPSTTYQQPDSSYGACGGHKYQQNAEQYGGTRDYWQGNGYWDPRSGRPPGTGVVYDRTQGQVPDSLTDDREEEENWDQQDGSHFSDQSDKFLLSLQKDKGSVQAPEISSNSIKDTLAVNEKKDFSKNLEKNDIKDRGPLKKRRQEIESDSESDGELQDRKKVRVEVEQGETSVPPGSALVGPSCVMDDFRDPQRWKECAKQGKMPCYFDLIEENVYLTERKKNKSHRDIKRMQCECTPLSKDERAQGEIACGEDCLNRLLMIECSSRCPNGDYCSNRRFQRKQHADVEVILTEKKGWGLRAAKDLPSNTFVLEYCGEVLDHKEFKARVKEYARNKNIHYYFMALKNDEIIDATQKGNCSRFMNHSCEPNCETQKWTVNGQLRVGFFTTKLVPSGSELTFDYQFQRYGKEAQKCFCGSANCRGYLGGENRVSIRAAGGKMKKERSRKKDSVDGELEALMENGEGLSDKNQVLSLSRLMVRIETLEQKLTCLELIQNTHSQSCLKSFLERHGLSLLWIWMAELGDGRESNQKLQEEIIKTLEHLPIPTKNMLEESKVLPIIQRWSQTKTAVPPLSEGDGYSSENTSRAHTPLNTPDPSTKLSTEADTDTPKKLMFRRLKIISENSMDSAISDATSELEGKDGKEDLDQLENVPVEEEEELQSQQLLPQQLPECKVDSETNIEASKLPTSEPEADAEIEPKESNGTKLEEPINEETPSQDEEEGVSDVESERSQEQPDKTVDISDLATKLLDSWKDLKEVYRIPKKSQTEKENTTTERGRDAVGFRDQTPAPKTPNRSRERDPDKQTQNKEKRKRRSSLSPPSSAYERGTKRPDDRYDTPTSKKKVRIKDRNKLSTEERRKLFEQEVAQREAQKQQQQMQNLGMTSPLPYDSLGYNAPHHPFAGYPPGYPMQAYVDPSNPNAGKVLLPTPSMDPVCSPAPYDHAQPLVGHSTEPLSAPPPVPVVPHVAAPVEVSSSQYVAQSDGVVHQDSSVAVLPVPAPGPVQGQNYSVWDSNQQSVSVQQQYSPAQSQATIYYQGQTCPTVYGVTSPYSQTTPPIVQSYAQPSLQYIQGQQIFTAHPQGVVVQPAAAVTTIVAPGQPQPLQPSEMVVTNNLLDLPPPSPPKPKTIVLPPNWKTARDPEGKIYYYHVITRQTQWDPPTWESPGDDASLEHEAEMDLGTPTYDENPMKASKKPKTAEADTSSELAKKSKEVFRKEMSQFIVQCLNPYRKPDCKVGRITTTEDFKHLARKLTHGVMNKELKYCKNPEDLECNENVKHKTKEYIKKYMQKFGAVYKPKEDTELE

[8] = biological target: MLL1/ASH2L/RBBP5/WDR5 complex (Homo sapiens) (UniProt P61964+Q03164+Q9UBL3+Q15291); assay: Inhibition of MLL (MLL/ASH2L/RBBP5/WDR5) (unknown origin) at <5 uM using histone H3 peptide (1 to 21) as substrate in presence of co-factor SAM by LC-MS analysis; type: protein-complex assay
[9] = biological target: Histone-lysine N-methyltransferase, H3 lysine-79 specific (Homo sapiens, UniProt Q8TEK3); assay: Binding affinity to DOT1l (unknown origin) assessed as dissociation half life by SPR assay
Sequence of Histone-lysine N-methyltransferase, H3 lysine-79 specific (Q8TEK3 whole entry, looked up, the tested form may be a part): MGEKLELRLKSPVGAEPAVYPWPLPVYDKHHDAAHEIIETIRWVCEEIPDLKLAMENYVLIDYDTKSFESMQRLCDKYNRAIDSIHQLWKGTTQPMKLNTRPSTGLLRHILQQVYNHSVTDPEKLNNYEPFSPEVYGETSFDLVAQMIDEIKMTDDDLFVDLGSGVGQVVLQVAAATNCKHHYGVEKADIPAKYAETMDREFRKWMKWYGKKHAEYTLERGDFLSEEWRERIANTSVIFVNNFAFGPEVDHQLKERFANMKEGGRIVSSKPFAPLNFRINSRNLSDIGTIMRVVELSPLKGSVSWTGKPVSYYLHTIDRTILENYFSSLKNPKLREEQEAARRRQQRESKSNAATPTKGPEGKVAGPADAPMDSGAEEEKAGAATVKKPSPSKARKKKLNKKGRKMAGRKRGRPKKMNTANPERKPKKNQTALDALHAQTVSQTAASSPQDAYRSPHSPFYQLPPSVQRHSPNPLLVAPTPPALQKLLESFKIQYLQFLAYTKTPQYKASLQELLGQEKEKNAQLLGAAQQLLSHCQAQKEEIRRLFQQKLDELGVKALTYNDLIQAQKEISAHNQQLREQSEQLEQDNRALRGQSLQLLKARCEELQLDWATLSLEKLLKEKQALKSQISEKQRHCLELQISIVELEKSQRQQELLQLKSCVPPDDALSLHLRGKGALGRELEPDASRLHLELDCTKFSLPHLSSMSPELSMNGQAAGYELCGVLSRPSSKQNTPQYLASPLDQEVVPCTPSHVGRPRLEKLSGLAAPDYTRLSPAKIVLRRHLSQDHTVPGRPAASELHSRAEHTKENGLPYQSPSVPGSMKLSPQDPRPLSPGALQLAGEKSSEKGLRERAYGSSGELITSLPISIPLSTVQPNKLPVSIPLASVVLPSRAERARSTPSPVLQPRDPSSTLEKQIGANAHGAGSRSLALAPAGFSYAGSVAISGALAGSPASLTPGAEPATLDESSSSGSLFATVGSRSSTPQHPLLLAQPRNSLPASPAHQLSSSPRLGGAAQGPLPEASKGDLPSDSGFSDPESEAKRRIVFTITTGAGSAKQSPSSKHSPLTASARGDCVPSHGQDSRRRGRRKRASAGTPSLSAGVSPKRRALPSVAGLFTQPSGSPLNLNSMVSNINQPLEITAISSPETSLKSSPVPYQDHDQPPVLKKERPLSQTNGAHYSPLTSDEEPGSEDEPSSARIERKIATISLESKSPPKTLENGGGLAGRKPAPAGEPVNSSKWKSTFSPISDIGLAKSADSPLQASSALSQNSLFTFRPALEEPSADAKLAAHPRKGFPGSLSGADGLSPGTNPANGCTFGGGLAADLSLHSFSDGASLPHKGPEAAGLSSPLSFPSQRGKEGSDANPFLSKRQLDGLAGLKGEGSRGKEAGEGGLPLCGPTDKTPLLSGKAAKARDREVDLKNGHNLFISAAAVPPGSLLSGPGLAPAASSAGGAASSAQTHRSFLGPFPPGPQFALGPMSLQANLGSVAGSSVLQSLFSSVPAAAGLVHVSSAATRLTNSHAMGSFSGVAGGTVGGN

[10] = biological target: T2, N-lysine methyltransferase KMT5A (Homo sapiens) (UniProt Q9NQR1); assay: Inhibition of SETD8 (unknown origin) at <5 uM using H4 (11 to 33 residues) as substrate in presence of co-factor SAM by LC-MS analysis
T2 sequence (whole entry): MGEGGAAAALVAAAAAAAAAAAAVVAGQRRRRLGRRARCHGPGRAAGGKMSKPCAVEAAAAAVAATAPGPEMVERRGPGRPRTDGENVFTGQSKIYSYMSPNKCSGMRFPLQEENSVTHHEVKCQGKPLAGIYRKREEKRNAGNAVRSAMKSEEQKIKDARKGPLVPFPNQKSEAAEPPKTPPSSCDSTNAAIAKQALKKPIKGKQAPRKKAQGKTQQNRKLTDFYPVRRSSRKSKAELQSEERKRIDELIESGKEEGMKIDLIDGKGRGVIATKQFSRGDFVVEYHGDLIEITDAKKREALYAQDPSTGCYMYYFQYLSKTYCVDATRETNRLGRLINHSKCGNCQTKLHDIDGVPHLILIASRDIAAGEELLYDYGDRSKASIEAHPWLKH

COc1nc(Nc2cc(S(C)(=O)=O)ccc2N[C@@H](c2cccc3c2OC(F)(F)O3)c2ncccc2Cl)nc(N2CCNCC2)n1
Activity [1]: Toxic | concentration at 24 h [2]: 4 to 8 µM | inhibition [3]: inactive | fold change (FC) (Mus musculus): <0.5 | inhibition [4]: inactive | inhibition [5]: inactive | inhibition (Homo sapiens): inactive | Drug uptake [6]: Active | inhibition [7]: inactive | inhibition [8]: inactive | T1/2 [9]: > 5 h | inhibition [10]: inactive
